In patent US9650363B2, “Integrin antagonist conjugates for targeted delivery to cells expressing LFA-1” (Hoffmann-La Roche Inc., priority 2012, dated 2017):

Biological target: sLFA-1/ICAM-1 (Homo sapiens, UniProt P05107+P20701, DEL701-769)
Test: sLFA-1/ICAM-1 ELISA (inhibition of 5dICAM-Fc binding to coated receptor)
Settings: control compounds; ICAM-1 binding ELISA, sLFA-1 or Mac-1 coated plates
Procedure: • Small molecules equipped with a maleimide functionality were covalently conjugated to the RNA through a thioether linkage. To enable this chemistry, ˜60 mg of the RNA containing the 5′-disulfide linker was reduced in water (5 mL) to the corresponding thiol using 1 mL TCEP (0.5 M in water, obtained from Sigma Aldrich). Once analytical anion exchange HPLC indicated completion of the reaction (˜2 h at room temperature) the RNA was precipitated with 30 mL ethanol/3M NaOAc (pH 5.4) 32:1 (v/v) over night at −20° C. The pellet was collected by centrifugation and used for the subsequent small molecule conjugation. • In a typical conjugation reaction 10 mg RNA was dissolved in 2 mL sodium phosphate buffer (0.1 M, pH 7.0). To this solution the small molecule (0.12 mM) in ACN/NMP 1:1 (v/v) was added over a period of 5 minutes. […] The pellet was collected by centrifugation, dissolved in water and if necessary purified by anion exchange HPLC pursuing the procedure given above. If the conjugate is sufficiently pure the reaction mixture was filtered through a size exclusion column (Sephadex G-25, GE Healthcare). Annealing of Oligoribonucleotides to Generate siRNA • Complementary strands were annealed by combining equimolar RNA solutions. […] Absorbance was measured at 450 nm. […]

Chain of sLFA-1/ICAM-1 (P20701 26-1090 limits assumed, stated change not applied): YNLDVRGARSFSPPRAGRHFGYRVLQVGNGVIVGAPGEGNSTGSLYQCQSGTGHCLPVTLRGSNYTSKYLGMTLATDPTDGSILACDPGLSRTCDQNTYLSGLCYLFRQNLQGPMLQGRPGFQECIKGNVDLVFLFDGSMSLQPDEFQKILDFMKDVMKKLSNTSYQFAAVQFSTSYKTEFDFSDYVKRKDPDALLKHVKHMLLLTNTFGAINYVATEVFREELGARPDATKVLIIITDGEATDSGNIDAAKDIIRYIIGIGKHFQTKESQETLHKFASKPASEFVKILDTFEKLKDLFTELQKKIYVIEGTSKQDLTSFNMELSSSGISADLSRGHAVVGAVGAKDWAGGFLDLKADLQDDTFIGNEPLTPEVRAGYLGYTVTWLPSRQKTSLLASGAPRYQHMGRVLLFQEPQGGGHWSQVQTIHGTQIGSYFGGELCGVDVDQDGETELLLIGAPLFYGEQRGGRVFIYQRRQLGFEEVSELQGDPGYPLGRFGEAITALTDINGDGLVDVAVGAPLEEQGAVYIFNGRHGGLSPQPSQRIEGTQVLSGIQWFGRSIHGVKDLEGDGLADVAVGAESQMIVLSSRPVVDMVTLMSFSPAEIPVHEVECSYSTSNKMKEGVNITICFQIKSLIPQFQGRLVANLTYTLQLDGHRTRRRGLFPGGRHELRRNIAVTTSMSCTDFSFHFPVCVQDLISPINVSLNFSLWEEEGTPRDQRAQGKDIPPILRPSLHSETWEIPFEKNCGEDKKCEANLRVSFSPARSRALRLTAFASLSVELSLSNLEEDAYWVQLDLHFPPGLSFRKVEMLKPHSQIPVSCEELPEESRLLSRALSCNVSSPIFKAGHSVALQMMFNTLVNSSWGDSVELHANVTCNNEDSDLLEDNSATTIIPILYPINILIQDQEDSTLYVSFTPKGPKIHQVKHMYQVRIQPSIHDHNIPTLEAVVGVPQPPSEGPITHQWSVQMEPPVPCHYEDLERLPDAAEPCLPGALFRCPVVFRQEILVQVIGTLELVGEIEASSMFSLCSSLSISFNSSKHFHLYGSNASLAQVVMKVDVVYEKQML
Chain of sLFA-1/ICAM-1 (P05107 23-700 limits assumed, stated change not applied): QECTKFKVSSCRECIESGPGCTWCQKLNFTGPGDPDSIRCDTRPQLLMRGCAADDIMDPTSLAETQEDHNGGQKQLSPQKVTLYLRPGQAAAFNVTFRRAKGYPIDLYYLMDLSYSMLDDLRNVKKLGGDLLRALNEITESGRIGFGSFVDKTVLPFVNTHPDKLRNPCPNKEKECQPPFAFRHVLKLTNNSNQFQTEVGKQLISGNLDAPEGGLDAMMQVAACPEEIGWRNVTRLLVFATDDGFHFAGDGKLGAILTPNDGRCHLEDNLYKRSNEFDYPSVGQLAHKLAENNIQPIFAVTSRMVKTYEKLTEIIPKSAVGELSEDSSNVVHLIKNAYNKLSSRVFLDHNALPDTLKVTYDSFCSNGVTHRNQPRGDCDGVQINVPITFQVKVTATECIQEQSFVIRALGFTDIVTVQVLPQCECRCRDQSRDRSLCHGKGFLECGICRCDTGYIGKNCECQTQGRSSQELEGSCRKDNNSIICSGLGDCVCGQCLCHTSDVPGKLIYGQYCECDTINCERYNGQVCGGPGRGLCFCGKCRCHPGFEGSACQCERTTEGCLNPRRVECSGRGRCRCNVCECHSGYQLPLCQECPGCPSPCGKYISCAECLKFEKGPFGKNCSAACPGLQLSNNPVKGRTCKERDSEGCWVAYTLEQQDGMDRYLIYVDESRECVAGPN

| IC50 [nM] | Structure (SMILES) |
| --- | --- |
| ~37 | Cc1cc(C(=O)NCc2cccc(O)c2)cc(C)c1C(=O)N[C@@H](CNC(=O)c1cccs1)C(=O)O [compound 142] |
| ~11 | O=C(NCc1cccc(O)c1)c1cc(Cl)c(C(=O)N[C@@H](CNC(=O)c2cc(O)cc(O)c2)C(=O)O)c(Cl)c1 [compound 143] |
